Test results: publication PMC7245562 (Cell chemical biology, 2020)
In brackets after ≈: the same amount, converted by molar mass. Values belong to the molecule of their own block, whether it stands above or below them.

Tests used:
[1] = target: T1, R12Y/G67S/Y100I ecDHFR fused to yellow fluorescent protein (ecDHFR.YFP) (Escherichia coli, UniProt P0ABQ4, G67S/R12Y/Y100I); assay type: cell-based; settings: for stabilization of ecDHFR.YFP: 10 μM final concentration, 24 h treatment; for dose-dependent stabilization of ecDHFR.YFP: dose-response, 24 h
[2] = target: R12Y/F31L/G67S/Y100I ecDHFR.YFP (Escherichia coli, UniProt P0ABQ4, F31L/G67S/R12Y/Y100I); assay type: cell-based; settings: 24 h, vs control ecDHFR DD
[3] = target: R12Y/M16L/G67S/Y100I ecDHFR.YFP (Escherichia coli, UniProt P0ABQ4, G67S/M16L/R12Y/Y100I); assay type: cell-based; settings: 24 h, vs control ecDHFR DD
[4] = target: T2, ecDHFR DD firefly luciferase (ecDHFR.FLuc) (Escherichia coli, UniProt P0ABQ4, G67S/R12Y/Y100I); assay type: in vivo, BALB/c mice; settings: 1 mg (50 mg/kg) oral gavage, 6 h, mean ± SEM
[5] = target: R12Y/G67S/I94L/Y100I ecDHFR.YFP (Escherichia coli, UniProt P0ABQ4, G67S/I94L/R12Y/Y100I); assay type: cell-based; settings: 24 h, vs control ecDHFR DD
[6] = target: I5F/R12Y/G67S/Y100I ecDHFR.YFP (Escherichia coli, UniProt P0ABQ4, G67S/I5F/R12Y/Y100I); assay type: cell-based; settings: 24 h, vs control ecDHFR DD
[7] = target: T2, ecDHFR DD firefly luciferase (ecDHFR.FLuc); assay type: in vivo, BALB/c mice; settings: 1 mg (50 mg/kg) oral gavage, 6 h, mean ± SEM; remark: listed apart in the source
recombinant hsDHFR = target: T3, recombinant hsDHFR (Homo sapiens, UniProt P00374); experiment: Human DHFR; assay type: biochemical; settings: 1 μM compound
T3 sequence (P00374 1-187): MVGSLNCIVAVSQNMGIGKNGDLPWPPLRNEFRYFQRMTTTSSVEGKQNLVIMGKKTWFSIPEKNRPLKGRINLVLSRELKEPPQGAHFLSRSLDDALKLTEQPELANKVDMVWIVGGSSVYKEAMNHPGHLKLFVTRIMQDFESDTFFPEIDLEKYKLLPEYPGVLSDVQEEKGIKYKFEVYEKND

ecDHFR.YFP = ecDHFR.YFP (Escherichia coli, UniProt P0ABQ4, G67S/R12Y/Y100I); assay type: cell-based; settings: for stabilization of ecDHFR after washout: 48 h post washout; for "Off" kinetics compared with TMP: 1 and 10 μM
RN4220 S. aureus = experiment: Bacterial growth assay, Gram-positive S. aureus; assay type: cell-based; settings: concentrations up to 50 μM
[8] = target: T1, R12Y/G67S/Y100I ecDHFR fused to yellow fluorescent protein (ecDHFR.YFP); assay type: cell-based; settings: 5 μM, 24 h
Iba1(+) microglia = experiment: Iba1; assay type: in vivo, BALB/c mice; settings: 1 mg per day for 7 days, oral gavage
[9] = test system: BW25113 wild-type E. coli; experiment: Bacterial growth assay, Gram-negative E. coli; settings: Escherichia coli, BW25113, read-out: minimal inhibitory concentration [MIC]

SMILES: Nc1nc2ccccc2c(=O)[nH]1 [2-AQ-4O, 2-amino-3H-quinazolin-4-one]
- stabilization of ecDHFR.YFP [1]: did not allow for stabilization

SMILES: Nc1nc(N)c2ccccc2n1 [2,4-DAQ, 2,4-diaminoquinazoline]
- responsiveness to stabilization, Phe31 (F31L) mutant [2]: eliminated all responsiveness
- effect of Met16 (M16L) mutation on stabilization [3]: did not significantly disrupt
- fold change in bioluminescent signal, liver [4]: 5.3 ± 2.1 fold
- responsiveness to stabilization, Ile94 (I94L) mutant [5]: eliminated all responsiveness
- responsiveness to stabilization, Ile5 (I5F) mutant [6]: eliminated all responsiveness
- fold change in luminescence after treatment, eye [7]: 1.6 ± 0.3 fold

SMILES: Nc1nc(N)c2nc(CNc3ccc(C(=O)N[C@@H](CCC(=O)O)C(=O)O)cc3)cnc2n1 [aminopterin]
- inhibition of hsDHFR activity (recombinant hsDHFR): completely inhibited
- dose-dependent stabilization of ecDHFR.YFP [1]: readily stabilized
- stabilization of ecDHFR after washout (ecDHFR.YFP): continued to stabilize ecDHFR

SMILES: Nc1nc(N)c2nc(-c3cccc(Cl)c3)c(N)nc2n1 [Epiblastin A]
- inhibition of hsDHFR activity (recombinant hsDHFR): intermediately inhibited
- S. aureus growth inhibition (RN4220 S. aureus): did not completely inhibit growth

SMILES: Cc1cc(/C=C/c2ccc3cc(N(C)C)ccc3[n+]2C)c(C)n1-c1ccccc1 [pyrvinium pamoate]
- hit follow-up in ARPE-19 cells lacking ecDHFR.YFP [8]: fluorescent false positives

- inhibition of hsDHFR activity (recombinant hsDHFR): intermediately inhibited
SMILES: CC1(C)N=C(N)N=C(N)N1OCCCOc1cc(Cl)c(Cl)cc1Cl [WR99210]

SMILES: COc1ccc(COc2ccc(Cc3cnc(N)nc3N)cc2OC)cc1 [GW2580]
- MIC (RN4220 S. aureus; LB broth, endpoint 19-24 h): ~ 50 μM
- fold change in luminescence after treatment, eye [7]: 8.6 ± 1.7 fold
- reduction of Iba1(+) microglia, inner retina (Iba1(+) microglia): 33%
- reduction of Iba1(+) microglia, outer retina (Iba1(+) microglia): 32%

SMILES: COc1ccc(Cc2cnc(N)nc2N)cc1OC [diaveridine]
- MIC [9]: ~16.6 µM (≈ 4.32 µg/mL)
- "Off" kinetics compared with TMP (ecDHFR.YFP): noticeably quicker

SMILES: [H]/N=C(\N/C(=N/[H])Nc1ccc(Cl)cc1)NC(C)C [proguanil]
- stabilization of ecDHFR.YFP [1]: no stabilization capabilities

SMILES: C#CCC(Cc1cnc2nc(N)nc(N)c2n1)c1ccc(C(=O)N[C@@H](CCC(=O)O)C(=O)O)cc1 (stereo partly shown) [Pralatrexate]
- inhibition of hsDHFR activity (recombinant hsDHFR): completely inhibited
- dose-dependent stabilization of ecDHFR.YFP [1]: readily stabilized
- fold change in bioluminescent signal, liver [4]: 7.1 ± 1.3 fold
- stabilization of ecDHFR after washout (ecDHFR.YFP): continued to stabilize ecDHFR
- time of peak ecDHFR.YFP fluorescence (ecDHFR.YFP; all concentrations used (0.1, 1, 10 μM)): 48 h
- fold change in luminescence after treatment, eye [7]: 3.5 ± 0.7 fold

SMILES: Nc1nc(N)c2nc(-c3ccccc3)c(N)nc2n1 [Triamterene]
- inhibition of hsDHFR activity (recombinant hsDHFR): intermediately inhibited
- fold change in bioluminescent signal, liver [4]: 1.9 ± 0.2 fold
- fold change in luminescence after treatment, eye [7]: 3.1 ± 0.6 fold

SMILES: COc1cc(C)c(Cc2cnc(N)nc2N)cc1OC [ormetoprim]
- MIC [9]: ~16.6 µM (≈ 4.55 µg/mL)
- "Off" kinetics, time after removal (ecDHFR.YFP; 0.1 μM): 2 to 4 h
- "Off" kinetics compared with TMP (ecDHFR.YFP): noticeably quicker

SMILES: Cc1nc2ccc(CN(C)c3ccc(C(=O)N[C@@H](CCC(=O)O)C(=O)O)s3)cc2c(=O)[nH]1 [raltitrexed]
- stabilization of ecDHFR.YFP [1]: did not allow for stabilization

SMILES: Nc1ncc(C=O)c(N)n1 [2,4-DAP-5C, 2,4-diaminopyrimidine-5-carbaldehyde]
- stabilization of ecDHFR.YFP [1]: insufficient to stabilize

SMILES: Nc1ccnc(N)n1 [2,4-DAP, 2,4-diaminopyrimidine]
- stabilization of ecDHFR.YFP [1]: insufficient to stabilize

SMILES: Nc1nc2[nH]cc(CCc3ccc(C(=O)N[C@@H](CCC(=O)O)C(=O)O)cc3)c2c(=O)[nH]1 [pemetrexed]
- stabilization of ecDHFR.YFP [1]: did not allow for stabilization
